Results taken from patent US9150902B2, “Method for determination of N-deacetylase/N-sulfotransferase activity” (SEIKAGAKU CORPORATION, priority 2005, dated 2015).

Assays:
[1] = tested on: monoclonal antibody F58-10E4; test: Inhibition method: monoclonal antibody F58-10E4 binding to HSBK-adhered plate in presence of N-sulfated heparosan; conditions: 20 μg/well; F58-10E4 1 μg/mL; lot as prepared
Method: A polysaccharide in which biotin is bound to the reducing end of HSBK was prepared using HSBK instead of NAH and in accordance with the method described in Example 1(3). Next, this was adhered to a plate in accordance with the method described in Example 9.
The monoclonal antibody F58-10E4 (final concentration: 1 μg/mL) and the 9 lots of N-sulfated heparosan (20 μg/well; a value corrected based on the uronic acid content obtained by the carbazole method) were added to the plate to which HSBK was adhered to effect the antigen-antibody reaction under the conditions described in Example 7, and the absorbance was measured by the method described in Example 7. This is a measurement by a so-called inhibition method. When concentration of the N-sulfated heparosan in the antigen-antibody reaction liquid is 0, substantially all of the monoclonal antibody F58-10E4 binds to the adhered HSBK and the detected absorbance becomes high.
By regarding the absorbance when concentration of the N-sulfated heparosan in the antigen-antibody reaction liquid is 0 as “inhibition rate 0%”, and the absorbance when excess concentration of N-sulfated heparosan is present in the antigen-antibody reaction liquid as “inhibition rate 100%”, the inhibition ratio was calculated on the 9 lots of N-sulfated heparosan. […]
The inhibition rates of these substances were also calculated in the same manner. […]

NDST2 (ND activity) = target: T1, NDST2 (ND activity) (Homo sapiens, UniProt P52849); test: Screening of ND activity inhibitors using the plate to which NAH-biotin was adhered via avidin (JM403 ELISA); assay type: biochemical; conditions: final concentration 100, 10 or 1 μg/ml; for ranking of ability to inhibit ND activity among NAH, HP, NSDS-HP and HSBK: FIG. 8; for function to inhibit ND activity (rate of change, FIG. 8): NDST enzyme liquid 80 times diluted, 37° C. 60 minutes
T1 construct: baculovirus gp67 signal peptide (39 amino acids) (N, cleaved yes); made in house; host or cells: Sf21 insect cells infected with recombinant baculovirus (virus stock made in Sf9)
T1 sequence (P52849 79-883): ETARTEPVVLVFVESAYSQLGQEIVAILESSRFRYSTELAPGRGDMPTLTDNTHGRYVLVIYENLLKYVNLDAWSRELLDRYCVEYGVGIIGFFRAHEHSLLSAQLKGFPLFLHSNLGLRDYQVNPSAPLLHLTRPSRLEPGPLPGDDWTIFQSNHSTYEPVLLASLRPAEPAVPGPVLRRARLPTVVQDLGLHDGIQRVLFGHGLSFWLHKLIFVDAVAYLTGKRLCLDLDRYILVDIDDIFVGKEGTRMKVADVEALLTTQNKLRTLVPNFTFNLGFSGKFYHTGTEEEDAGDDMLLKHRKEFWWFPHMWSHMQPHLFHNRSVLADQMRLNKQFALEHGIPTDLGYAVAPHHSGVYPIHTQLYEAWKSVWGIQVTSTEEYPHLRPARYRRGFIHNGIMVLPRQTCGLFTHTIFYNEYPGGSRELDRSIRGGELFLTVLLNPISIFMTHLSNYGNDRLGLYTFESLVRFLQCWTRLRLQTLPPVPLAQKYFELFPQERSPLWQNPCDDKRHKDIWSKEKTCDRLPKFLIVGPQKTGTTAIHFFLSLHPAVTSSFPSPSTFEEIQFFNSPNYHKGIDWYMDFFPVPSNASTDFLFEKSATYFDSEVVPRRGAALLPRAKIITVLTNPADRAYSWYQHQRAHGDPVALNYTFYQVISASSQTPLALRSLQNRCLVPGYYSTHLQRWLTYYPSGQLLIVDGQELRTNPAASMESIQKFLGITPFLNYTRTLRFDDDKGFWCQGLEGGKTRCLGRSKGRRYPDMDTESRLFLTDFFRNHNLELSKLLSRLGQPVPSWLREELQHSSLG
Method: Each of the following 6 substances to be tested was diluted to 200, 20 or 2 μg/ml using the enzyme reaction liquid 1. Quickly after addition of 25 μl of the solutions to each well of the solid phase (plate) produced in Example 9, 25 μl of an “NDST enzyme liquid diluted 40 times with the enzyme reaction liquid I” was added to each well (final concentration of each substance to be tested 100, 10 or 1 μg/ml, final dilution rate of the enzyme liquid 80 times).
Thereafter, the enzyme reaction was effected by standing still at 37° C. for 60 minutes. In this connection, the enzyme reaction liquid 1 alone was added to the wells to which the substances to be tested were not added.
After completion of the reaction, the wells were washed three times with T-TBS and 100 μl of a solution of the monoclonal antibody JM403 (Seikagaku Corporation) adjusted to 1 μg/ml with TBS was added to each well. Thereafter, the plate was allowed to stand still at ordinary temperature (15 to 25° C.) for 60 minutes to undergo the antigen-antibody reaction. After the reaction, the wells were washed three times with T-TBS, and 100 μl of the HRP-labeled goat anti-mouse immunoglobulin G+M antibody diluted 20000 times with TBS was added to each well. Thereafter, the plate was allowed to stand still at ordinary temperature for 60 minutes to undergo the antigen-antibody reaction.
After the reaction, this plate was washed three times with T-TBS, and 100 μl of the TMB solution was added to each well and allowed to undergo the reaction at ordinary temperature for 30 minutes to develop a color. Thereafter, the reaction was terminated by adding 100 μl of the reaction terminating liquid to each well, and then the absorbance was measured by the same method described in Example 5. Also, the rate of change (%) was calculated by the following calculation formula. Rate of change(%)=100×((the value of absorbance when each substance to be tested is not added)−(the value of absorbance when each substance to be tested at respective concentration is added))/(the value of absorbance when each substance to be tested is not added).
In this connection, since the monoclonal antibody JM403 binds to the GlcN residues in NAH (that is, de-N-acetylated GlcNAc residue), higher value of the detected absorbance means that the number of GlcN residues in NAH is larger (that is, the number of de-N-acetylated GlcNAc residues is larger), namely the ND activity is higher. On the contrary, lower value of the detected absorbance means that the number of GlcN residues in NAH is smaller (that is, the number of de-N-acetylated GlcNAc residues is smaller), namely the ND activity is low.
Additionally, when a substance to be tested inhibits ND activity, the aforementioned rate of change (%) becomes a positive number. Also, higher value of the rate of change means higher ability of the substance to be tested to inhibit ND.

Row | Substance | Inhibition rate (%) No treatment [1] [%] | ranking of ability to inhibit ND activity among NAH, HP, NSDS-HP and HSBK (NDST2 (ND activity)) | function to inhibit ND activity (rate of change, FIG. 8) (NDST2 (ND activity))
1 | Bovine kidney-derived HS [HSBK] | 99 | highest ability to inhibit ND activity | inhibit ND activity concentration-dependently
2 | Cockscomb-derived hyaluronic acid [HA] |  |  | hardly possessed of the function to inhibit ND activity
3 | N-acetyl heparosan [NAH] |  | lowest ability to inhibit ND activity | inhibit ND activity concentration-dependently
4 | N-sulfated/completely de-O-sulfated HP [NSDS-HP] |  |  | inhibit ND activity concentration-dependently
5 | Partially de-N-acetylated NAH [PDNAC-NAH] |  |  | hardly possessed of the function to inhibit ND activity
6 | Swine small intestine-derived HP |  |  | inhibit ND activity concentration-dependently
